The source of these data is US9586951B2 (FUJIFILM Corporation, priority 2013, dated 2017).

SMILES strings stand for the structures.

For one assay, the target named is T1, ATM (Homo sapiens, UniProt Q13315).
T1 construct: detecting phosphorylation of Chk2 in a human non-small cell lung cancer cell line NCI-H460 (ATCC company); host or cells: NCI-H460 human non-small cell lung cancer cells
As to the kind of experiment: ATM inhibition test (phosphorylation of Chk2 generated by ionizing radiation, AlphaScreen SureFire). In kind it is cell-based. The following applies: phosphorylated Chk2 in NCI-H460 cells, ionizing radiation 8Gy, 1 hour after test compound treatment; read-out: ATM inhibitory activity. The procedure, abridged: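 NCI-H460 cells treated with compound for 1 hour, then irradiated with 8Gy and incubated 1 hour at 37° C. Phospho-Chk2 measured by AlphaScreen SureFire. Inhibition ratio calculated relative to untreated irradiated and non-irradiated wells.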
(In general: Bead proximity is the source of the signal in Alpha formats.)

Assay [1] deals with human non-small cell lung cancer cell line NCI-H460. The assay is described as follows: Cell proliferation inhibition test by sensitivity-enhancing to ionizing radiation (Cell Titer Glo). In kind it is cell-based. The conditions noted are these: Homo sapiens, NCI-H460, 120 h, concentration in which SER became 2; NCI-H460 cells, ionizing radiation 2 Gy, cultured 120 hour. The procedure, abridged: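 Cells seeded at 2×10^3 cells/mL in RPMI-1640 with 10% FBS; after 24 h, compound added (0.1% DMSO), and 30 min later half the plates irradiated at 2 Gy. After 120 hour at 37° C, viability by Cell Titer Glo luminescence; SER2 is the concentration giving SER of 2 by sigmoidal fit.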
Background: ATP-based viability assays read luminescence as a measure of living cells.

T1 sequence (Q13315 whole entry): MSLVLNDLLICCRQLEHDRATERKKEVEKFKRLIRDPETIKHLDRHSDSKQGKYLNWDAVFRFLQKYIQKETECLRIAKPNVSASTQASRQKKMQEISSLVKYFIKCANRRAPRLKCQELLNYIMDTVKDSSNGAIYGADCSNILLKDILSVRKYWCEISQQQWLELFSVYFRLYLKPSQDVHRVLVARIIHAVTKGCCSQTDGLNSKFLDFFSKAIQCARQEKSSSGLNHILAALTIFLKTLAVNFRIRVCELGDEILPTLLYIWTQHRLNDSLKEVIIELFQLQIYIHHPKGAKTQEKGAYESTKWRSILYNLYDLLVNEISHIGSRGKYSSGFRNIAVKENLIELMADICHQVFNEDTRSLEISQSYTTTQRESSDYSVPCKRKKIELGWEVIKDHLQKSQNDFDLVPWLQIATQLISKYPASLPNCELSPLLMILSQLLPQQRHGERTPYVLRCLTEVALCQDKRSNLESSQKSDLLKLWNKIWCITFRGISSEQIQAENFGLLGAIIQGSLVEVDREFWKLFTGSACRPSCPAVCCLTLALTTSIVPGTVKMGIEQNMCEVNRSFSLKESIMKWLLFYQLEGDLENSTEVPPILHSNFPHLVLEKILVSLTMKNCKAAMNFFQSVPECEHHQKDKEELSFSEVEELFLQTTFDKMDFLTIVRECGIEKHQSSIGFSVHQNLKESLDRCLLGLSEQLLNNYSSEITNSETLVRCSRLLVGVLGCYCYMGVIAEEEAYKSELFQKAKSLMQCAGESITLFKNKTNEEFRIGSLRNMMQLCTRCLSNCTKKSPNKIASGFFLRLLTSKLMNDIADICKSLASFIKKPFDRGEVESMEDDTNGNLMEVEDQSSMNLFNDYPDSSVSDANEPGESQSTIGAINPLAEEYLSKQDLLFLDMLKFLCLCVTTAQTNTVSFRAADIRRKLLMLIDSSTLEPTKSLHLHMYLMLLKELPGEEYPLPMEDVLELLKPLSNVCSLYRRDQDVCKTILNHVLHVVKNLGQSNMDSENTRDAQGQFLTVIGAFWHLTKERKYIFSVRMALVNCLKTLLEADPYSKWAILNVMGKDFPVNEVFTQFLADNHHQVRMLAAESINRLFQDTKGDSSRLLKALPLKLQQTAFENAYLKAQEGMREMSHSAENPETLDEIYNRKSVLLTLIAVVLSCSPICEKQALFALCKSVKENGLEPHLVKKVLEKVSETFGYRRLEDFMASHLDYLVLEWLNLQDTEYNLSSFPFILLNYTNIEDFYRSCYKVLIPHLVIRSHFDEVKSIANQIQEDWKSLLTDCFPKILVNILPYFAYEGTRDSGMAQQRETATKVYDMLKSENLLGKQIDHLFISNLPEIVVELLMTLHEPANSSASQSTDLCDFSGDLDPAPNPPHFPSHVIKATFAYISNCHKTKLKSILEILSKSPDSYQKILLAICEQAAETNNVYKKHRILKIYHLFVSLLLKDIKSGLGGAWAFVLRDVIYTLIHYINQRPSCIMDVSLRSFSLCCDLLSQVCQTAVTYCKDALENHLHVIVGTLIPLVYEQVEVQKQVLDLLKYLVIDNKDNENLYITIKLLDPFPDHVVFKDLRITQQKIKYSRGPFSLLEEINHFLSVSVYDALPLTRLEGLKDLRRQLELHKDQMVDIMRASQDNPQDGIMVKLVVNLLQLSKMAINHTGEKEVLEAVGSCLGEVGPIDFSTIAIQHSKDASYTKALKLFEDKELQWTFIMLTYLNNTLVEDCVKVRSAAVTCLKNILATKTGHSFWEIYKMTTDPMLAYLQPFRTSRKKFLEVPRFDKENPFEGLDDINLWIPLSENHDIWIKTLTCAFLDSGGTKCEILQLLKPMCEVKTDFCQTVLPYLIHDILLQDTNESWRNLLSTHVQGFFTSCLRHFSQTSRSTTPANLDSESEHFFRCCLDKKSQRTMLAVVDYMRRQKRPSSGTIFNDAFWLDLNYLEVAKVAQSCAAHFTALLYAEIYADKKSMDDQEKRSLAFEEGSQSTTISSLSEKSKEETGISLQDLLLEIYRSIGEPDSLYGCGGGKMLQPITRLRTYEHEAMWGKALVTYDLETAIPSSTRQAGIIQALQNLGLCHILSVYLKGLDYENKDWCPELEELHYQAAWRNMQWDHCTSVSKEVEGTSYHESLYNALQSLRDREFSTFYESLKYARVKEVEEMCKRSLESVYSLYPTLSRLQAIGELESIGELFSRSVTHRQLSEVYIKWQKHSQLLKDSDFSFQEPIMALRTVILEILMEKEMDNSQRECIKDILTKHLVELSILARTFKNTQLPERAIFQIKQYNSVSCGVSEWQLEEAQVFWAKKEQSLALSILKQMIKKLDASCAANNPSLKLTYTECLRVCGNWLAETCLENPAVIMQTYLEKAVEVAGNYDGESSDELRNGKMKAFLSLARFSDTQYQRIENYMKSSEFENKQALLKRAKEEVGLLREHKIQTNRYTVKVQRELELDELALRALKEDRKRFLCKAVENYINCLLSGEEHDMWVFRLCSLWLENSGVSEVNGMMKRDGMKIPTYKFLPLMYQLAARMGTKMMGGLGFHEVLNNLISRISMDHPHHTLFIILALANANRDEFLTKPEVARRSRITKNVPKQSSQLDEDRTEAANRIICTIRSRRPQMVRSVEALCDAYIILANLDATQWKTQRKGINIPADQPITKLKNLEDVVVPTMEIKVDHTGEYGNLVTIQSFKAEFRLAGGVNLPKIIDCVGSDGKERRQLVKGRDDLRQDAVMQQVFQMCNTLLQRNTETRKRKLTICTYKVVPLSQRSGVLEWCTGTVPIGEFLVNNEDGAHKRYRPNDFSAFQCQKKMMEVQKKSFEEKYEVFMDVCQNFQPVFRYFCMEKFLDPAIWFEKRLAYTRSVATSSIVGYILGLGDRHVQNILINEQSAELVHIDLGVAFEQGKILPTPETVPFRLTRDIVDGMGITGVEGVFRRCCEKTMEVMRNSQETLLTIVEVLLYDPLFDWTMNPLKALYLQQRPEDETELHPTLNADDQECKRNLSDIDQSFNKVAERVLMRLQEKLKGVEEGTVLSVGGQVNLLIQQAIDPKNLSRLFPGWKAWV

In the case of `Cc1cccc(C(C)Nc2ccc3c(c2)Cc2cccc(-c4cc(N5CCOCC5)cc(=O)[nH]4)c2O3)n1` (single isomer, unassigned) [Example 2-14-85-2, 6-(7-((1-(6-methylpyridin-2-yl)ethyl)amino)-9H-xanthen-4-yl)-4-morpholinopyridin-2(1H)-one], the IC50 at ATM was less than 0.1 µM. The SER2 (concentration at which the radiation sensitivity-enhancement ratio reaches 2) in assay [1] is less than 100 nM.

With `Cc1ccc(C(CCC2OCCCO2)Nc2ccc3c(c2)Sc2cccc(-c4cc(N5CCOCC5)cc(=O)[nH]4)c2S3)nc1` (centres unmarked) [Example 1-12-131, 6-(7-((3-(1,3-Dioxan-2-yl)-1-(5-methylpyridin-2-yl)propyl)amino)thianthren-1-yl)-4-morpholino pyridin-2 (1H)-one], the IC50 on ATM is less than 0.1 µM. Also, the SER2 (concentration at which the radiation sensitivity-enhancement ratio reaches 2) in assay [1] lay within 100 to 500 nM.

Regarding `Cc1ccnc(C(C)Nc2ccc3c(c2)Cc2cccc(-c4cc(N5CCOCC5)cc(=O)[nH]4)c2O3)c1` (centres unmarked) [Example 2-14-19, 6-(7-((1-(4-Methylpyridin-2-yl)ethyl)amino)-9H-xanthen-4-yl)-4-morpholino pyridin-2(1H)-one], the IC50 at ATM lay in the range of 0.1 to 0.5 µM. In assay [1], the SER2 (concentration at which the radiation sensitivity-enhancement ratio reaches 2) lay in the range of 100 to 500 nM.

Regarding `Cc1ccc(C(Nc2ccc3c(c2)Sc2cccc(-c4cc(N5CCOCC5)cc(=O)[nH]4)c2S3)C2CCN(C)CC2)nc1` (centres unmarked) [Example 1-35, 6-(7-(((1-methylpiperidin-4-yl)(5-methylpyridin-2-yl)methyl)amino)thianthren-1-yl)-4-morpholinopyridin-2(1H)-one], the IC50 at ATM was less than 0.1 µM. Moreover, in assay [1], the SER2 (concentration at which the radiation sensitivity-enhancement ratio reaches 2) is less than 100 nM.

As to `CC(Nc1ccc2c(c1)Cc1cccc(-c3cc(N4CCOCC4)cc(=O)[nH]3)c1O2)c1nccc(CF)n1` (centres unmarked) [Example 2-14-61, 6-(7-((1-(4-(Fluoromethyl)pyrimidin-2-yl)ethyl)amino)-9H-xanthen-4-yl)-4-morpholino pyridin-2(1H)-one], the IC50 at ATM was less than 0.1 µM. The SER2 (concentration at which the radiation sensitivity-enhancement ratio reaches 2) in assay [1] was less than 100 nM.

With `CC(Nc1ccc2c(c1)Cc1cccc(-c3cc(N4CCOCC4)cc(=O)[nH]3)c1O2)c1nccc(C(F)F)n1` (stereo not drawn) [Example 2-14-62, 6-(7-((l-(4-(Difluoromethyl)pyrimidin-2-yl)ethyl)amino)-9H-xanthen-4-yl)-4-morpholino pyridin-2(1H)-one], on ATM, the IC50 is less than 0.1 µM. For the same compound, the SER2 (concentration at which the radiation sensitivity-enhancement ratio reaches 2) in assay [1] lay in the range of 100 to 500 nM.

For `O=c1cc(N2CCOCC2)cc(-c2cccc3c2Sc2ccc(NCc4cc(Cl)ccn4)cc2S3)[nH]1` [Example 1-12-3, 6-(7-(((4-Chloropyridin-2-yl)methyl)amino)thianthren-1-yl)-4-morpholino pyridin-2 (1H)-one], the IC50 at ATM is less than 0.1 µM. Also, in assay [1], the SER2 (concentration at which the radiation sensitivity-enhancement ratio reaches 2) fell in the range of 100 to 500 nM.
